Experimental data as given in patent publication US9725442B2, “Heterocyclic derivative having PGD2 receptor antagonist activity” (Shionogi & Co., Ltd., priority 2011, dated 2017).
Where two headings read alike, the source gives them in different places.

Tests used:
[1] = target: Human DP1 receptor (Homo sapiens (Human), UniProt Q13258); assay: Human DP1 inhibitory activity in DP1-expressing cell (PGD2-induced cAMP); type: cell-based
Description: Compounds were categorized as AA (cAMP is less than 100 nM) and A (cAMP is more than 100 nM and less than 5000 nM) as shown in Table 99 and 100.

[2] = target: CRTH2 (Homo sapiens (Human), UniProt Q9Y5Y4); assay: CRTH2 receptor binding inhibitory activity ([3H]-PGD2 displacement, membranes of CRTH2-expressing K562 cell)
Procedure, shortened: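 Incubation ran 60 min at room temperature using 20 μg/well membrane from CRTH2-expressing K562 cells in pH 7.4 Tris/HCl (50 mM) with 10 mM MgCl2.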

[3] = category of cAMP IC50, human DP1 receptor expressing Jurkut cell
[4] = CRTH2 receptor binding, [3H]-PGD2 displacement, membrane of CRTH2-expressing K562 cell, categorized AAAA/AAA, read-out: Ki
[5] = [3H]-PGD2 displacement, membrane of CRTH2-expressing K562 cell, read-out: Ki

Sequence of CRTH2 (Q9Y5Y4 whole entry): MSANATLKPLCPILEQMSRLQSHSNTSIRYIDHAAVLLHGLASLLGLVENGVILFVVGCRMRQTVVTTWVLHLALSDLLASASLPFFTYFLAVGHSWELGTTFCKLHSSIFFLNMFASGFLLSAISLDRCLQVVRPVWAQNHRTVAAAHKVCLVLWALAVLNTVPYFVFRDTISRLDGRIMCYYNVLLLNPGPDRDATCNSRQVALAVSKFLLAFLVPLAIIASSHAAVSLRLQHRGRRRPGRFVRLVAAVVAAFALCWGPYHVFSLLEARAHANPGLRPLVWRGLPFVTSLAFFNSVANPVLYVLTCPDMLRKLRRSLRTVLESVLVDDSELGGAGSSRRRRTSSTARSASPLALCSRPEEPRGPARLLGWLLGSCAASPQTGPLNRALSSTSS
Sequence of Human DP1 receptor (Q13258 whole entry): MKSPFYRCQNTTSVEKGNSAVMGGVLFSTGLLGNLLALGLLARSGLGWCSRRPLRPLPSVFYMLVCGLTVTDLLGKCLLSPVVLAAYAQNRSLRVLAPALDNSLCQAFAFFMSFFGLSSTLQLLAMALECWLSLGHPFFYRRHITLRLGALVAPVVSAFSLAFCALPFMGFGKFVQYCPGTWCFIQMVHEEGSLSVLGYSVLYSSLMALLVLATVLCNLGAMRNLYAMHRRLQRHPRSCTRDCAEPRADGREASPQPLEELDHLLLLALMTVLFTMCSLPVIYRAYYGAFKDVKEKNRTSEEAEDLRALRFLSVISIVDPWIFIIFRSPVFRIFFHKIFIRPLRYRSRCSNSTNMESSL

Row | Structure (SMILES) | IC50 [1, 3] | Ki [2, 4] | Ki [2, 5] | Ki [2] | IC50 ([1]; IC50 of PGD2 (60 nM)-induced cAMP increase, human DP1 receptor expressing Jurkut cell)
1 | CC(C)Oc1ccc(S(=O)(=O)N2C[C@@H](C)[C@@H](n3nc(CC(=O)O)c4c(F)cccc43)C2)cc1 [Compound I-263] | < 100 nM | < 100 nM | – | – | –
2 | COc1ccc(S(=O)(=O)N2C[C@@H](C)[C@@H](n3nc(CC(=O)O)c4ccccc43)C2)nc1 [Compound I-246] | 100 to 5000 nM | < 100 nM | – | – | –
3 | C[C@]1(O)CN(S(=O)(=O)c2ccc(F)cc2)C[C@@H]1n1nc(CC(=O)O)c2ccccc21 [Compound I-158] | 100 to 5000 nM | < 100 nM | – | – | –
4 | CC(C)Oc1ccc(S(=O)(=O)N2C[C@H](n3nc(CC(=O)O)c4ccccc43)[C@](C)(F)C2)cc1 [Compound I-88] | < 100 nM | < 100 nM | – | – | –
5 | COc1ccc(S(=O)(=O)N2C[C@@H](C)[C@@H](n3nc(CC(=O)O)c4ccc(F)cc43)C2)cc1 [Compound I-112] | < 100 nM | < 100 nM | – | – | –
6 | C[C@H]1CN(S(=O)(=O)c2ccc(OC(F)F)cc2)C[C@@H]1n1nc(CC(=O)O)c2ccccc21 [Compound I-194] | 100 to 5000 nM | < 100 nM | – | – | –
7 | COc1ccc(S(=O)(=O)N2C[C@@H](C)[C@@H](n3nc(CC(=O)O)c4ccc(Cl)cc43)C2)cc1 [Compound I-140] | < 100 nM | < 100 nM | – | – | –
8 | CC(C)C1CC1S(=O)(=O)N1C[C@@H](C)[C@@H](n2nc(CC(=O)O)c3ccccc32)C1 (stereo partly shown) [Compound I-238] | 100 to 5000 nM | < 100 nM | – | – | –
9 | CCOc1ccc(S(=O)(=O)N2C[C@@H](C)[C@@H](n3cc(CC(=O)O)c4ccc(-c5cnn(C)c5)cc43)C2)cc1 [Compound I-328] | 100 to 5000 nM | 100 to 5000 nM | – | – | –
10 | C[C@@H]1CN(S(=O)(=O)C2CCCCC2)C[C@@H]1n1nc(CC(=O)O)c2ccccc21 [Compound I-266] | 100 to 5000 nM | 100 to 5000 nM | – | – | –
11 | CC(C)Oc1ccc(S(=O)(=O)N2C[C@H](n3nc(CC(=O)O)c4ccc(F)cc43)C[C@H]2C(N)=O)cc1 [Compound I-2] | 100 to 5000 nM | 100 to 5000 nM | – | – | –
12 | CCOc1ccc(S(=O)(=O)N2C[C@@H](C)[C@@H](n3nc(CC(=O)O)c4ccc(C(F)(F)F)cc43)C2)cc1 [Compound I-129] | < 100 nM | < 100 nM | – | – | –
13 | CCOc1ccc(S(=O)(=O)N2C[C@@H](C)[C@@H](n3nc(CC(=O)O)c4ccccc43)C2)c(C=NOC)c1 [Compound I-181] | 100 to 5000 nM | 100 to 5000 nM | – | – | –
14 | CCOc1ccc(S(=O)(=O)N2C[C@@H](C)[C@@H](n3nc(CC(=O)O)c4ccc(N5CCOCC5)cc43)C2)cc1 [Compound I-219] | 100 to 5000 nM | 100 to 5000 nM | 230 nM | – | –
15 | CC(C)Oc1ccc(S(=O)(=O)N2C[C@@H](C)[C@@H](n3nc(CC(=O)O)c4cccc(F)c43)C2)cc1 [Compound I-59] | 100 to 5000 nM | < 100 nM | 23 nM | – | –
16 | CCOc1ccc(S(=O)(=O)N2C[C@@H](C)[C@@H](n3nc(CC(=O)O)c4ccccc43)C2)c(CCc2ccccc2)c1 [Compound I-186] | 100 to 5000 nM | < 100 nM | – | – | –
17 | CC(C)Oc1ccc(S(=O)(=O)N2CC(F)[C@@H](n3nc(CC(=O)O)c4ccc(F)cc43)C2)cc1 (stereo partly shown) [Compound I-26] | 100 to 5000 nM | < 100 nM | – | – | –
18 | Cc1ccc(S(=O)(=O)N2C[C@H](n3c(C)c(CC(=O)O)c4ccccc43)C[C@@H]2C)cc1 [Compound I-318] | 100 to 5000 nM | 100 to 5000 nM | – | – | –
19 | CC(C)Oc1ccc(S(=O)(=O)N2C[C@H](n3nc(CC(=O)O)c4ccc(F)cc43)CC2(C)C)cc1 [Compound I-24] | 100 to 5000 nM | < 100 nM | – | – | –
20 | CC(C)Oc1ccc(S(=O)(=O)N2C[C@H](n3nc(CC(=O)O)c4ccc(F)cc43)CC23CC3)cc1 [Compound I-54] | 100 to 5000 nM | < 100 nM | – | – | –
21 | C[C@H]1CN(S(=O)(=O)c2ccc(OC(F)F)cc2)C[C@H]1n1nc(CC(=O)O)c2ccc(F)cc21 [Compound I-136] | 100 to 5000 nM | 100 to 5000 nM | – | – | –
22 | COc1ccc(S(=O)(=O)N2C[C@@H](C)[C@@H](n3nc(CC(=O)O)c4ccc(C)cc43)C2)cc1 [Compound I-230] | < 100 nM | < 100 nM | – | – | –
23 | CCOc1ccc(S(=O)(=O)N2C[C@@H](C)[C@@H](n3nc(CC(=O)O)c4ccccc43)C2)c(CCO)c1 [Compound I-314] | 100 to 5000 nM | < 100 nM | – | – | –
24 | O=C(O)Cc1nn([C@H]2C[C@H]3CC[C@@H](C2)N3S(=O)(=O)c2ccc(F)cc2)c2cc(F)ccc12 [Compound I-82] | 100 to 5000 nM | – | – | 100 to 5000 nM | –
25 | C=C1CN(S(=O)(=O)c2ccc(OC(C)C)cc2)CC1n1nc(CC(=O)O)c2ccc(F)cc21 (stereo not shown) [Compound I-43] | 100 to 5000 nM | < 100 nM | – | – | –
26 | O=C(O)Cc1nn([C@@H]2C[C@H]3CC[C@@H](C2)N3S(=O)(=O)c2ccc(F)cc2)c2cc(F)ccc12 [Compound I-80] | 100 to 5000 nM | – | – | 100 to 5000 nM | –
27 | C[C@@H]1CN(S(=O)(=O)c2ccc(OC(F)F)cc2)C[C@@H]1n1nc(CC(=O)O)c2ccccc21 [Compound I-98] | < 100 nM | < 100 nM | – | – | –

Row | Structure (SMILES) | IC50 [1, 3] | Ki [2, 4] | Ki [2, 5] | Ki [2] | IC50 ([1]; IC50 of PGD2 (60 nM)-induced cAMP increase, human DP1 receptor expressing Jurkut cell)
28 | C[C@H]1C[C@@H](n2nc(CC(=O)O)c3ccc(F)cc32)CCN1S(=O)(=O)c1ccc(F)cc1 [Compound I-77] | 100 to 5000 nM | < 100 nM | 48 nM | – | –
29 | CC(C)Oc1ccc(S(=O)(=O)N2C[C@@H](n3nc(CC(=O)O)c4ccc(F)cc43)C[C@H]2C)cc1 [Compound I-8] | 100 to 5000 nM | < 100 nM | – | – | –
30 | C[C@@H]1CN(S(=O)(=O)c2ccc(OC(F)F)cc2)C[C@H]1n1nc(CC(=O)O)c2ccccc21 [Compound I-195] | 100 to 5000 nM | < 100 nM | – | – | –
31 | Cc1c(CC(=O)O)c2ccccc2n1[C@@H]1C[C@H](C)N(S(=O)(=O)c2ccc(OC(F)F)cc2)C1 [Compound I-316] | 100 to 5000 nM | 100 to 5000 nM | 220 nM | – | 110 nM
32 | CCc1ccc(S(=O)(=O)N2C[C@@H](C)[C@@H](n3nc(CC(=O)O)c4ccc(C(F)(F)F)cc43)C2)cc1 [Compound I-126] | < 100 nM | < 100 nM | – | – | –
33 | CC(C)Oc1ccc(S(=O)(=O)N2C[C@@H](C)[C@@H](n3nc(CC(=O)NC#N)c4ccc(F)cc43)C2)cc1 [Compound I-139] | < 100 nM | < 100 nM | 32 nM | – | –
34 | CCOc1ccc(S(=O)(=O)N2C[C@@H](n3nc(CC(=O)O)c4ccccc43)[C@](C)(F)C2)cc1 [Compound I-310] | 100 to 5000 nM | 100 to 5000 nM | – | – | –
35 | CCOc1ccc(S(=O)(=O)N2C[C@@H](C)[C@@H](n3nc(C(C)(O)C(=O)O)c4ccccc43)C2)cc1 (stereo partly shown) [Compound I-283] | < 100 nM | 100 to 5000 nM | – | – | –
36 | COc1ccc(S(=O)(=O)N2C[C@@H](C)[C@@H](n3nc(CC(=O)O)c4ccc(F)cc43)C2)nc1 [Compound I-234] | 100 to 5000 nM | < 100 nM | – | – | –
37 | CCOc1ccc(S(=O)(=O)N2C[C@@H](C)[C@@H](n3nc(CC(=O)O)c4ccc(C(F)(F)F)cc43)C2)cn1 [Compound I-132] | < 100 nM | < 100 nM | – | – | –
38 | CC(C)Oc1ccc(S(=O)(=O)N2C[C@H](n3nc(CC(=O)O)c4cccc(F)c43)C[C@@H]2C)cc1 [Compound I-60] | < 100 nM | 100 to 5000 nM | – | – | –
39 | CCOc1ccc(S(=O)(=O)N2C[C@H](n3nc(CC(=O)O)c4ccc(F)cc43)[C@H](C)[C@H]2C#N)cc1 [Compound I-217] | < 100 nM | < 100 nM | – | – | –
40 | CCOc1ccc(S(=O)(=O)N2C[C@@H](C)[C@@H](n3nc(CC(=O)O)c4ccccc43)C2)c(CF)c1 [Compound I-258] | < 100 nM | < 100 nM | – | – | –
41 | CCOc1ccc(S(=O)(=O)N2C[C@@H](C)[C@@H](n3nc(CC(=O)O)c4ccccc43)C2)c(Br)c1 [Compound I-216] | < 100 nM | < 100 nM | – | – | –
42 | CC(C)Oc1ccc(S(=O)(=O)N2C[C@H](n3nc(CC(=O)O)c4ccc(F)cc43)C[C@@H]2COc2cccc(O)c2)cc1 [Compound I-346] | < 100 nM | < 100 nM | – | – | –
43 | CCOc1ccc(S(=O)(=O)N2C[C@H](n3nc(CC(=O)O)c4ccccc43)[C@H](C)[C@H]2C#N)cc1 [Compound I-332] | 100 to 5000 nM | < 100 nM | – | – | –
44 | CC(C)Oc1ccc(S(=O)(=O)N2C[C@@H](C)[C@@H](n3nc(CC(=O)O)c4ccc(F)cc43)C2)cc1 [Compound I-29] | < 100 nM | < 100 nM | – | – | –
45 | CCOc1ccc(S(=O)(=O)N2C[C@@H](C)[C@@H](n3nc(CC(=O)O)c4cc(C)ccc43)C2)cn1 [Compound I-265] | < 100 nM | < 100 nM | – | – | –
46 | COCCOCCOC[C@H]1C[C@@H](n2nc(CC(=O)O)c3ccc(F)cc32)CN1S(=O)(=O)c1ccc(OC(C)C)cc1 [Compound I-291] | 100 to 5000 nM | 100 to 5000 nM | – | – | –
47 | CC(C)Oc1ccc(S(=O)(=O)N2C[C@@H](n3nc(CC(=O)O)c4ccc(F)cc43)[C@@H](C)C2)cc1 [Compound I-36] | 100 to 5000 nM | < 100 nM | – | – | –
48 | CCOc1ccc(S(=O)(=O)N2C[C@H](n3nc(CC(=O)O)c4ccccc43)[C@@H](C)[C@@H]2C#N)cc1 [Compound I-304] | < 100 nM | < 100 nM | – | – | –
49 | COc1ccc2c(CC(=O)O)nn([C@H]3CN(S(=O)(=O)c4ccc(OC(C)C)cc4)C[C@H]3C)c2c1 [Compound I-204] | < 100 nM | < 100 nM | – | – | –
50 | COc1ccc(S(=O)(=O)N2C[C@@H](C)[C@@H](n3nc(CC(=O)O)c4cc(Cl)ccc43)C2)cc1 [Compound I-218] | < 100 nM | 100 to 5000 nM | – | – | –
51 | COCCOCCOc1ccc(S(=O)(=O)N2C[C@@H](C)[C@@H](n3nc(CC(=O)O)c4ccccc43)C2)cc1 [Compound I-253] | 100 to 5000 nM | 100 to 5000 nM | – | – | –
52 | COc1ccc(S(=O)(=O)N2C[C@@H](C)[C@@H](n3nc(CC(=O)O)c4ccccc43)C2)c(F)c1 [Compound I-244] | < 100 nM | < 100 nM | – | – | –
53 | Cc1ccc2c(CC(=O)O)nn([C@H]3CN(S(=O)(=O)c4ccc(OC(F)(F)F)cc4)C[C@H]3C)c2c1 [Compound I-231] | < 100 nM | < 100 nM | – | – | –
